Test results: patent US9624214B2, “Amino-substituted imidazo[1,2-a]pyridinecarboxamides and their use” (BAYER PHARMA AKTIENGESELLSCHAFT, priority 2012, dated 2017)
Counter-ions that a name gives are not always drawn.

Biological target: T1, recombinant guanylate cyclase reporter cell line (Rattus norvegicus, UniProt P19686+P20595)
T1 construct: expressed in transfected cells
T1 sequence (P20595 1-619): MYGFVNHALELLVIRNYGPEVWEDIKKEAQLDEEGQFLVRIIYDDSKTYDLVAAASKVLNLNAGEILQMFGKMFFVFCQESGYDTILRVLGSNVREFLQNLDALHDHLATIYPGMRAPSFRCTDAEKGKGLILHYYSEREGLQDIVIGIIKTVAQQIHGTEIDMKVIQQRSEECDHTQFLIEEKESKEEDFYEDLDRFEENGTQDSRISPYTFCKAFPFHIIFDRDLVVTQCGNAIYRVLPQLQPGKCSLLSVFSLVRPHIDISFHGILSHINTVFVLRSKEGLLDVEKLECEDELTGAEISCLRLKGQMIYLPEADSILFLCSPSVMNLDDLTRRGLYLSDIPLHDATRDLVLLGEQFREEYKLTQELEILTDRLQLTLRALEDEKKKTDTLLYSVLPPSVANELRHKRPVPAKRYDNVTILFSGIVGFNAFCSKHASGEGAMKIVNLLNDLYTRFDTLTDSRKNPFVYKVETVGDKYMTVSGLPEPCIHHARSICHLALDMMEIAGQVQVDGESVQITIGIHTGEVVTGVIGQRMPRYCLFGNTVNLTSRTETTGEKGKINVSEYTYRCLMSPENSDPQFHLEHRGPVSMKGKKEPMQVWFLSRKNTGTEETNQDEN
T1 sequence (P19686 1-690): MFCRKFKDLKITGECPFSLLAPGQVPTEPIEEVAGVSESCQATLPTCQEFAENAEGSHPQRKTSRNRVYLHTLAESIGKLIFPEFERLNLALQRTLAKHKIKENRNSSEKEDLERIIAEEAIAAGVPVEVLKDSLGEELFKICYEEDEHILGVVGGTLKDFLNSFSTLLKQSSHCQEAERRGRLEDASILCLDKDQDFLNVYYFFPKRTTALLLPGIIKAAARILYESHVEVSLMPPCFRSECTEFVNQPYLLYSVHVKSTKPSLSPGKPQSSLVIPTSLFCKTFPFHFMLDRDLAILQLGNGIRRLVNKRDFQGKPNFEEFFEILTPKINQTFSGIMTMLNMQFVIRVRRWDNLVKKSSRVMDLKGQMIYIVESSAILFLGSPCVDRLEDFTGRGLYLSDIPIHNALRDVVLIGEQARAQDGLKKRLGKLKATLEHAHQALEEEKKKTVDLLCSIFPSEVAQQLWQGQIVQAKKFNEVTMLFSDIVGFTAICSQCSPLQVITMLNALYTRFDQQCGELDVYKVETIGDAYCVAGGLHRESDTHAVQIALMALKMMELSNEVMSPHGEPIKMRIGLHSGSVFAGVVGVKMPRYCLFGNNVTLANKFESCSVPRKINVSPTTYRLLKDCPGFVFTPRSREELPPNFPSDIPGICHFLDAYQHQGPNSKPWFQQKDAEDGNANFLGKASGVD
Experiment: B-2. Action on recombinant guanylate cyclase reporter cell line
Format: cell-based
Conditions: MEC = minimal effective concentration; in some cases mean values from individual determinations
In short: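 Cellular activity was measured in a reporter cell line expressing recombinant guanylate cyclase. Values are given as MEC, the minimal effective concentration, and some are means of individual determinations.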

SMILES	MEC
C#Cc1cc(OCc2c(F)cccc2F)c2nc(C)c(C(=O)NCC(C)(N)CCC)n2c1 (stereo not drawn) [Example 355, ent-N-(2-amino-2-methylpentyl)-8-[(2,6-difluorobenzyl)oxy]-6-ethynyl-2-methylimidazo[1,2-a]pyridine-3-carboxamide Formate]	0.30 µM
C#Cc1cc(OCc2c(F)cccc2F)c2nc(C)c(C(=O)NCC(C)(N)CCC)n2c1 (stereo not drawn) [Example 356, ent-N-(2-amino-2-methylpentyl)-8-[(2,6-difluorobenzyl)oxy]-6-ethynyl-2-methylimidazo[1,2-a]pyridine-3-carboxamide]	0.10 µM
CCCC(C)(N)CNC(=O)c1c(C)nc2c(OCc3c(F)ccc(C4CC4)c3F)cc(C)cn12 (stereo not drawn) [Example 359, ent-N-(2-amino-2-methylpentyl)-8-[(3-cyclopropyl-2,6-difluorobenzyl)oxy]-2,6-dimethylimidazo[1,2-a]pyridine-3-carboxamide]	3.00 µM
CCC(C)(N)CNC(=O)c1c(C)nc2c(OCc3c(F)ccc(OC)c3F)cc(C)cn12 (stereo not drawn) [Example 360, ent-N-(2-amino-2-methylbutyl)-8-[(2,6-difluoro-3-methoxybenzyl)oxy]-2,6-dimethylimidazo[1,2-a]pyridine-3-carboxamide]	1.00 µM
COc1ccc(F)c(COc2cc(C)cn3c(C(=O)NCC(C)(N)CF)c(C)nc23)c1F (stereo not drawn) [Example 361, ent-N-(2-amino-3-fluoro-2-methylpropyl)-8-[(2,6-difluoro-3-methoxybenzyl)oxy]-2,6-dimethylimidazo[1,2-a]pyridine-3-carboxamide]	1.00 µM
Cc1cc(OCc2c(F)ccc(C3CC3)c2F)c2nc(C)c(C(=O)NCC(C)(N)CF)n2c1 (stereo not drawn) [Example 362, N-(2-amino-3-fluoro-2-methylpropyl)-8-[(3-cyclopropyl-2,6-difluorobenzyl)oxy]-2,6-dimethylimidazo[1,2-a]pyridine-3-carboxamide]	1.00 µM
CCC(C)(N)CNC(=O)c1c(C)nc2c(OCc3c(F)ccc(C4CC4)c3F)cc(C)cn12 (stereo not drawn) [Example 363, ent-N-(2-amino-2-methylbutyl)-8-[(3-cyclopropyl-2,6-difluorobenzyl)oxy]-2,6 dimethylimidazo[1,2-a]pyridine-3-carboxamide]	3.00 µM
CCCC(C)(N)CNC(=O)c1c(C)nc2c(OCc3c(F)ccc(OC)c3F)cc(C)cn12 (stereo not drawn) [Example 364, ent-N-(2-amino-2-methylpentyl)-8-[(2,6-difluoro-3-methoxybenzyl)oxy]-2,6-dimethylimidao[1,2-a]pyridine-3-carboxamide]	0.30 µM
Cc1cc(OCc2c(F)cccc2F)c2nc(C)c(C(=O)NC34CC5CC(CC(N)(C5)C3)C4)n2c1 [Example 365, N-(3-aminoadamantan-1-yl)-8-[(2,6-difluorobenzyl)oxy]-2,6-dimethylimidazo[1,2-a]pyridine-3-carboxamide Formate]	1.00 µM
CCCC(C)(N)CNC(=O)c1c(C)nc2c(OCc3c(F)cccc3F)cc(CF)cn12 (stereo not drawn) [Example 403, ent-N-(2-amino-2-methylpentyl)-8-[(2,6-difluorobenzyl)oxy]-6-(fluoromethyl)-2-methylimidazo[1,2-a]pyridine-3-carboxamide]	0.10 µM
CCC(C)(N)CNC(=O)c1c(C)nc2c(OCc3c(F)cccc3F)cc(CF)cn12 (stereo not drawn) [Example 404, ent-N-(2-amino-2-methylbutyl)-8-[(2,6-difluorobenzyl)oxy]-6-(fluoromethyl)-2-methylimidazo[1,2-a]pyridine-3-carboxamide]	0.30 µM
Cc1nc2c(OCc3c(F)cccc3F)cc(CF)cn2c1C(=O)NCC(C)(N)CF (stereo not drawn) [Example 405, ent-N-(2-amino-3-fluoro-2-methylpropyl)-8-[(2,6-difluorobenzyl)oxy]-6-(fluoromethyl)-2-methylimidazo[1,2-a]pyridine-3-carboxamide]	0.30 µM
